Data reported in PubChem BioAssay AID1963447 (Molecular Pharmacology Branch, DTP, NCI, 2024).

System: 885512-296-R-J2-PDC complex spheroid growth, % test/control
Assay: Anticancer human tumor 885512-296-R-J2-PDC patient-derived breast carcinoma cell line growth inhibition [Asc]
Conditions: for IC50: curve of first compound; for viability, T/C: stronger effect = lower value
How it was run: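 Complex spheroids combining tumor cells with HUVEC endothelial cells and human MSCs, at 37 degrees C, 5% CO2; agents tested alone or combined, half-log dilutions from at or near clinical Cmax, or 10 microM if Cmax unknown.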

[1] = second compound 0.1 µM, first compound 0.0316 µM
[2] = second compound 0.1 µM, first compound 0.1 µM
[3] = second compound 0.316 µM, first compound 0.0316 µM
[4] = second compound 0.316 µM, first compound 0.1 µM
[5] = second compound 1 µM, first compound 0.0316 µM
[6] = second compound 1 µM, first compound 0.1 µM
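Note: spheroids exposed to compounds for seven days.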
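Throughout, for viability, T/C: 100% = DMSO vehicle control wells.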

SMILES: C#Cc1c(F)ccc2cc(O)cc(-c3ncc4c(N5CC6CCC(C5)N6)nc(OCC56CCCN5CC(F)C6)nc4c3F)c12 (stereo not given) + Cc1c(S(C)(=O)=O)c(-c2cc(F)cc(N3CCN(c4ccc(NS(=O)(=O)c5ccc(NC(CCN6CCC(C(=O)OCCCP(=O)(O)O)CC6)CSc6ccccc6)c(S(=O)(=O)C(F)(F)F)c5)cc4)CC3)c2)c(-c2ccc(Cl)cc2)n1C(C)C
- IC50 (second compound 0.1 µM): > 10000 nM
- IC50 (second compound 0.316 µM): > 10000 nM
- IC50 (second compound 1 µM): > 10000 nM
- IC50 (second compound 3.16 µM): > 10000 nM
- IC50 (second compound 10 µM): > 10000 nM
- viability, T/C [1]: 96.9%
- viability, T/C [2]: 78.9%
- viability, T/C (second compound 0.1 µM, first compound 0.316 µM): 85.1%
- viability, T/C (second compound 0.1 µM, first compound 1 µM): 77.4%
- viability, T/C (second compound 0.1 µM, first compound 3.16 µM): 74.1%
- viability, T/C (second compound 0.1 µM, first compound 10 µM): 70.9%
- viability, T/C [3]: 96.8%
- viability, T/C [4]: 105%
- viability, T/C (second compound 0.316 µM, first compound 0.316 µM): 90.9%
- viability, T/C (second compound 0.316 µM, first compound 1 µM): 72.4%
- viability, T/C (second compound 0.316 µM, first compound 3.16 µM): 95.4%
- viability, T/C (second compound 0.316 µM, first compound 10 µM): 71%
- viability, T/C [5]: 88.3%
- viability, T/C [6]: 82.9%
- viability, T/C (second compound 1 µM, first compound 0.316 µM): 93%
- viability, T/C (second compound 1 µM, first compound 1 µM): 66.6%
- viability, T/C (second compound 1 µM, first compound 3.16 µM): 86%
- viability, T/C (second compound 1 µM, first compound 10 µM): 66.9%
- viability, T/C (second compound 3.16 µM, first compound 0.0316 µM): 88.3%
- viability, T/C (second compound 3.16 µM, first compound 0.1 µM): 112%
- viability, T/C (second compound 3.16 µM, first compound 0.316 µM): 82.7%
- viability, T/C (second compound 3.16 µM, first compound 1 µM): 76.5%
- viability, T/C (second compound 3.16 µM, first compound 3.16 µM): 79.8%
- viability, T/C (second compound 3.16 µM, first compound 10 µM): 76.4%
- viability, T/C (second compound 10 µM, first compound 0.0316 µM): 115%
- viability, T/C (second compound 10 µM, first compound 0.1 µM): 112%
- viability, T/C (second compound 10 µM, first compound 0.316 µM): 101%
- viability, T/C (second compound 10 µM, first compound 1 µM): 117%
- viability, T/C (second compound 10 µM, first compound 3.16 µM): 103%
- viability, T/C (second compound 10 µM, first compound 10 µM): 51.4%

SMILES: Cn1ncnc1[C@H]1c2n[nH]c(=O)c3cc(F)cc(c23)N[C@@H]1c1ccc(F)cc1 + CNC(C)C(=O)NC1CN(S(=O)(=O)c2cccc(S(=O)(=O)N3CCC4CCC(C(=O)NC(c5ccccc5)c5ccccc5)N4C(=O)C(NC(=O)C(C)NC)C3)c2)CCC2CCC(C(=O)NC(c3ccccc3)c3ccccc3)N2C1=O
- IC50 (second compound 0.01 µM): 26.2 nM
- IC50 (second compound 0.0316 µM): 17.6 nM
- IC50 (second compound 0.1 µM): 23.4 nM
- IC50 (second compound 0.316 µM): 15.3 nM
- IC50 (second compound 1 µM): 21.3 nM
- viability, T/C (second compound 0.01 µM, first compound 0.000316 µM): 86%
- viability, T/C (second compound 0.01 µM, first compound 0.001 µM): 71.1%
- viability, T/C (second compound 0.01 µM, first compound 0.00316 µM): 73.5%
- viability, T/C (second compound 0.01 µM, first compound 0.01 µM): 63.4%
- viability, T/C (second compound 0.01 µM, first compound 0.0316 µM): 47.7%
- viability, T/C (second compound 0.01 µM, first compound 0.1 µM): 26.2%
- viability, T/C (second compound 0.0316 µM, first compound 0.000316 µM): 98.5%
- viability, T/C (second compound 0.0316 µM, first compound 0.001 µM): 96.5%
- viability, T/C (second compound 0.0316 µM, first compound 0.00316 µM): 92.3%
- viability, T/C (second compound 0.0316 µM, first compound 0.01 µM): 60.5%
- viability, T/C (second compound 0.0316 µM, first compound 0.0316 µM): 40.1%
- viability, T/C (second compound 0.0316 µM, first compound 0.1 µM): 31.2%
- viability, T/C (second compound 0.1 µM, first compound 0.000316 µM): 102%
- viability, T/C (second compound 0.1 µM, first compound 0.001 µM): 100%
- viability, T/C (second compound 0.1 µM, first compound 0.00316 µM): 90.8%
- viability, T/C (second compound 0.1 µM, first compound 0.01 µM): 70.5%
- viability, T/C [1]: 42.9%
- viability, T/C [2]: 22.4%
- viability, T/C (second compound 0.316 µM, first compound 0.000316 µM): 98%
- viability, T/C (second compound 0.316 µM, first compound 0.001 µM): 100%
- viability, T/C (second compound 0.316 µM, first compound 0.00316 µM): 94.6%
- viability, T/C (second compound 0.316 µM, first compound 0.01 µM): 56%
- viability, T/C [3]: 42.4%
- viability, T/C [4]: 27.6%
- viability, T/C (second compound 1 µM, first compound 0.000316 µM): 108%
- viability, T/C (second compound 1 µM, first compound 0.001 µM): 97.1%
- viability, T/C (second compound 1 µM, first compound 0.00316 µM): 98.2%
- viability, T/C (second compound 1 µM, first compound 0.01 µM): 65.6%
- viability, T/C [5]: 42.5%
- viability, T/C [6]: 26.2%
